{"source": "patent US20150150995A1", "about": "“CONJUGATED ANTI-MICROBIAL COMPOUNDS AND CONJUGATED ANTI-CANCER COMPOUNDS AND USES THEREOF” (PONO CORPORATION, priority 2012, published 2015)", "key": {"[1]": {"test_system": "carbapenem-resistant enterobacteriaceae (CRE)", "assay": "Minimum inhibitory concentration (MIC) test against CRE", "format": "cell-based", "settings": "drug resistant gram negative bacterium", "description": "(§1) This complex can be easily compared to the cefazolin sodium salt by testing the minimum inhibitory concentration (MIC). Initial tests were performed against a drug resistant gram negative bacterium; carbapenem-resistant enterobacteriaceae (CRE) and a drug resistant gram positive bacterium; methicillin-resistant staphylococcus aureus (MRSA). […] By transforming the cefazolin sodium salt into a silver complex, it changes the antibiotic that CRE and MRSA are resistant to, to a compound that CRE and MRSA are susceptible to. Thus, in several embodiments, the compositions provided for herein lead to a heretofore unseen efficacy against drug-resistant microorganisms."}, "[2]": {"test_system": "methicillin-resistant staphylococcus aureus (MRSA)", "assay": "Minimum inhibitory concentration (MIC) test against MRSA", "format": "cell-based", "description": "as §1"}}, "note": "Counter-ions that a name gives are not always drawn. Like-named read-outs stand apart in the source and are kept apart here.", "data": [{"compound": "cefazolin silver complex", "values": [{"measurement": "MIC", "setting": "[1]", "result": 4, "unit": "µg/mL"}, {"measurement": "MIC", "setting": "[2]; drug resistant gram positive bacterium", "result": 4, "unit": "µg/mL"}]}, {"compound": "Cc1nnc(SCC2=C(C(=O)O)N3C(=O)[C@@H](NC(=O)Cn4cnnn4)[C@H]3SC2)s1", "note": "[cefazolin sodium salt, Cefazolin sodium salt]", "values": [{"measurement": "MIC", "setting": "[1]; read-out: MIC", "result": "> 256", "unit": "µg/mL"}, {"measurement": "MIC", "setting": "[2]; Staphylococcus aureus", "result": 256, "unit": "µg/mL"}]}]}
